Laboratory results published in patent US5340591A, “Method of producing a solid dispersion of the sparingly water-soluble drug, nilvadipine” (Fujisawa Pharmaceutical Co., Ltd., priority 1992, dated 1994).
Values after ≈ are worked out from the molar mass of the structure shown.

Experiment: Solubility of nilvadipine bulk substance
Assay type: physicochemical
Conditions: J.P.

- solubility (1st fluid): 1.3 µg/mL (≈ 3.37 µM)
- solubility (2nd fluid): 1 µg/mL (≈ 2.59 µM)
Structure (SMILES): COC(=O)C1=C(C#N)NC(C)=C(C(=O)OC(C)C)C1c1cccc([N+](=O)[O-])c1 (centres unmarked) [nilvadipine bulk substance, nilvadipine]
